Source: patent US11279714B2, “Anti-infective compounds” (priority 2014, dated 2022)

How the values were obtained:
Type in all cases: cell-based, Mycobacterium
Conditions in all cases: REMA, 1 week + 1 day resazurin; relative to H37Rv
[1] = system: MDR-33 (clinical isolate of multidrug-resistance tuberculosis)
[2] = system: MDR-137 (clinical isolate of multidrug-resistance tuberculosis)
[3] = system: MDR-146 (clinical isolate of multidrug-resistance tuberculosis)

SMILES	Antibacterial activity MDR-33 [1]	Antibacterial activity MDR-137 [2]	Antibacterial activity MDR-146 [3]
Cc1nc2cc(NC(=O)c3cc4sc(N5CCOCC5)nc4s3)ccc2o1 [Compound 83]	+++ (+++ indicates <2 times of MIC50 on wild type strain (H37Rv))	+++ (+++ indicates <2 times of MIC50 on wild type strain (H37Rv))	+++ (+++ indicates <2 times of MIC50 on wild type strain (H37Rv))
COc1ccc(NC(=O)c2cc3sc(N4CCC(C(=O)N(C)C)CC4)nc3s2)cc1 [Compound 127]	+++ (+++ indicates <2 times of MIC50 on wild type strain (H37Rv))	+++ (+++ indicates <2 times of MIC50 on wild type strain (H37Rv))	+++ (+++ indicates <2 times of MIC50 on wild type strain (H37Rv))
Cc1nc2cc(NC(=O)c3cc4sc(N5CCC(CO)CC5)nc4s3)ccc2o1 [Compound 144]	+++ (+++ indicates <2 times of MIC50 on wild type strain (H37Rv))	+++ (+++ indicates <2 times of MIC50 on wild type strain (H37Rv))	+++ (+++ indicates <2 times of MIC50 on wild type strain (H37Rv))
COCCN(C)c1nc2sc(C(=O)Nc3ccc4oc(C)nc4c3)cc2s1 [Compound 202]	+++ (+++ indicates <2 times of MIC50 on wild type strain (H37Rv))	+++ (+++ indicates <2 times of MIC50 on wild type strain (H37Rv))	+++ (+++ indicates <2 times of MIC50 on wild type strain (H37Rv))
